According to publication PMC7769078 (International Journal of Nanomedicine, 2020):

What was measured:
[1] = system: zebrafish larvae (7 dpf); assay: C6-NPs endocytosis in larval zebrafish with endocytic inhibitors; assay type: in vivo, zebrafish (Danio rerio); details: 7 dpf larvae, 30 min inhibitor, C6-NPs 100 ng/mL 30 min
[2] = system: SH-SY5Y cells; assay: Cytoprotection against MPP+-induced cell death in SH-SY5Y cells; assay type: cell-based, human; details: for viability of MPP+-treated SH-SY5Y cells: 2 h pre-treatment, then 2 mM MPP+ 36 h

## CN(C)CCCN1c2ccccc2Sc2ccc(Cl)cc21 [CPZ, chlorpromazine]
[1]
  inhibitory effect on C6-NPs internalization in zebrafish larvae: most profound inhibitory effect

## C[n+]1ccc(-c2ccccc2)cc1 [MPP^+, 1-methyl-4-phenylpyridinium ion]
[2]; 2 mM MPP+, 36 h
  cell death induced in SH-SY5Y cells: 47.6%

## Ginkgolide B [GB]
[2]; 1 μM
  viability of MPP+-treated SH-SY5Y cells: 60%
[2]; 5 μM
  viability of MPP+-treated SH-SY5Y cells: 65%
[2]; 10 μM
  viability of MPP+-treated SH-SY5Y cells: 71%
[2]; 20 μM
  viability of MPP+-treated SH-SY5Y cells: 78%

## methyl-β-cyclodextrin [MβCD]
[1]
  inhibitory effect on C6-NPs internalization in zebrafish larvae: most profound inhibitory effect
